{"source": "ChEMBL document CHEMBL5661967", "about": "“Antitumor activity of HKI-272, an orally active, irreversible inhibitor of the HER-2 tyrosine kinase” (Cancer Res, 2004)", "key": {"MCF7": {"tested_on": "MCF7", "test": "Antitumor activity against human MCF7 cells xenografted in athymic nude mouse assessed as tumor growth inhibition up to 80 mg/kg, po administered daily for 20 days via gavage and measured on day 28 relative to control", "type": "functional", "settings": "time 28 day"}, "SW-620": {"tested_on": "SW-620", "test": "Antiproliferative activity against human SW620 cells measured after 2 days by sulforhodamine B assay", "type": "functional, cell-based", "settings": "SW-620, 48 h"}, "[1]": {"target": "RAC-alpha serine/threonine-protein kinase (Homo sapiens, UniProt P31749)", "sequence (P31749 whole entry)": "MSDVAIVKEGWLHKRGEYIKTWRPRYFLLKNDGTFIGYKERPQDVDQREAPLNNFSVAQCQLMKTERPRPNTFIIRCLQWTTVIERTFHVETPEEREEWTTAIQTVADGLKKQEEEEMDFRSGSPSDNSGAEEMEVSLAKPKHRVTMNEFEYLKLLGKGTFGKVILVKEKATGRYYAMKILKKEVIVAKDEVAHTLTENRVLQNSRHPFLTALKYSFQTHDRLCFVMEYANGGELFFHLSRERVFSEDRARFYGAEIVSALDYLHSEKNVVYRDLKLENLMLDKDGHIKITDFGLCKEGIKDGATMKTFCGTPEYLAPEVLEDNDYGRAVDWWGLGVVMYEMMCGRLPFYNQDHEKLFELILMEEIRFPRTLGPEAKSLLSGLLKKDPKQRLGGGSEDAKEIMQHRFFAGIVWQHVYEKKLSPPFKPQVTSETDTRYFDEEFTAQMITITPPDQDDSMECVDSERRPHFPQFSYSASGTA", "test": "Inhibition of recombinant AKT (unknown origin) using peptide as substrate"}, "MDA-MB-361": {"tested_on": "MDA-MB-361", "test": "Antiproliferative activity against human MDA-MB-361 cells measured after 2 days by sulforhodamine B assay", "type": "functional, cell-based", "settings": "MDA-MB-361, 48 h"}, "[2]": {"test": "Toxicity in human SK-OV-3 cells xenografted athymic nude mouse assessed as body weight loss at 10 to 60 mg/kg, po administered daily via gavage for 20 days", "type": "organism-based", "settings": "in vivo, 480 h, dose 10-60 mg/kg, time 20 day"}, "BT-474 [3]": {"tested_on": "BT-474", "test": "Cell cycle arrest in human BT-474 cells assessed as accumulation of cells at S phase at 2 nM measured after 12 to 16 hrs by propidium iodide staining based flow cytometry (reference value: 21%)", "type": "functional", "settings": "time 12-16 hrs"}, "BT-474 [4]": {"tested_on": "BT-474", "test": "Cell cycle arrest in human BT-474 cells assessed as accumulation of cells at Sub-G1 phase at 2 nM measured after 12 to 16 hrs by propidium iodide staining based flow cytometry (reference value: 8%)", "type": "functional", "settings": "time 12-16 hrs"}, "[5]": {"test": "Toxicity in mouse 3T3 cells transfected with HER-2 oncogene implanted athymic nude mouse assessed as body weight loss at 20 to 80 mg/kg, po administered daily for 10 days", "type": "organism-based, NIH3T3", "settings": "in vivo, 240 h, dose 20-80 mg/kg, time 10 day"}, "BT-474 [6]": {"tested_on": "BT-474", "test": "Cell cycle arrest in human BT-474 cells assessed as accumulation of cells at G0-G1 phase at 0.4 nM measured after 12 to 16 hrs by propidium iodide staining based flow cytometry (reference value: 61%)", "type": "functional", "settings": "time 12-16 hrs"}, "[7]": {"test": "Terminal half life in nude mouse at 20 mg/kg, po administered as single dose", "type": "ADME, organism-based", "settings": "in vivo, read-out: beta t1/2 (converted)"}, "BT-474 [8]": {"tested_on": "BT-474", "test": "Cell cycle arrest in human BT-474 cells assessed as reduction in accumulation of cells at S phase measured after 12 to 16 hrs by BrdUrd uptake assay", "type": "functional, cell-based"}, "A-431 [9]": {"tested_on": "A-431", "test": "Antiproliferative activity against human A-431 cells measured after 2 days by sulforhodamine B assay", "type": "functional, cell-based", "settings": "A-431, 48 h"}, "NIH3T3": {"tested_on": "NIH3T3", "test": "Antitumor activity against mouse 3T3 cells transfected with HER-2 oncogene implanted in athymic nude mouse assessed as tumor growth inhibition at 40 mg/kg, po administered daily for 10 days via gavage and measured on day 14 relative to control", "type": "functional", "settings": "NIH3T3, 336 h, time 14 day, read-out: TGI"}, "[10]": {"test": "Toxicity in mouse 3T3 cells transfected with HER-2 oncogene implanted athymic nude mouse at 20 to 80 mg/kg, po administered daily for 10 days", "type": "organism-based, NIH3T3", "settings": "in vivo, 240 h, dose 20-80 mg/kg, time 10 day"}, "BT-474 [11]": {"tested_on": "BT-474", "test": "Cell cycle arrest in human BT-474 cells assessed as accumulation of cells at S phase at 2 nM measured after 12 to 16 hrs by BrdUrd uptake assay (reference value: 26%)", "type": "functional", "settings": "time 12-16 hrs"}, "A-431 [12]": {"tested_on": "A-431", "test": "Antitumor activity against human A-431 cells xenografted in athymic nude mouse assessed as tumor growth inhibition at 20 mg/kg, po administered daily for 10 days via gavage and measured on day 15 relative to control", "type": "functional", "settings": "A-431, 360 h, time 15 day, read-out: TGI"}, "BT-474 [13]": {"tested_on": "BT-474", "test": "Cell cycle arrest in human BT-474 cells assessed as down regulation of Rb expression at 1 to 10 nM incubated for 12 to 16 hrs by Western blot analysis", "type": "functional, cell-based", "settings": "dose 1-10 nM, time 12-16 hrs"}, "BT-474 [14]": {"tested_on": "BT-474", "test": "Cell cycle arrest in human BT-474 cells assessed as down regulation of cyclin D1 expression incubated for 12 to 16 hrs by Western blot analysis", "type": "functional, cell-based"}, "[15]": {"target": "Cyclin-dependent kinase 4/cyclin D1 (Homo sapiens, UniProt P11802)", "sequence (P11802 whole entry)": "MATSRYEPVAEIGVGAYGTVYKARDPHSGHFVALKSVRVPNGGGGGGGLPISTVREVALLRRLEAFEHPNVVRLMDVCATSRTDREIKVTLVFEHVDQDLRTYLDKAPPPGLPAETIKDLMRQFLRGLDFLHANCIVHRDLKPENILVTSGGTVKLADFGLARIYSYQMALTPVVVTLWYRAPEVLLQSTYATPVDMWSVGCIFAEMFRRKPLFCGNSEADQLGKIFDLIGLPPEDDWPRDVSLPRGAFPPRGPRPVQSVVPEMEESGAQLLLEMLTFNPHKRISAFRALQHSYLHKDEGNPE", "sequence (P24385 whole entry, further chain)": "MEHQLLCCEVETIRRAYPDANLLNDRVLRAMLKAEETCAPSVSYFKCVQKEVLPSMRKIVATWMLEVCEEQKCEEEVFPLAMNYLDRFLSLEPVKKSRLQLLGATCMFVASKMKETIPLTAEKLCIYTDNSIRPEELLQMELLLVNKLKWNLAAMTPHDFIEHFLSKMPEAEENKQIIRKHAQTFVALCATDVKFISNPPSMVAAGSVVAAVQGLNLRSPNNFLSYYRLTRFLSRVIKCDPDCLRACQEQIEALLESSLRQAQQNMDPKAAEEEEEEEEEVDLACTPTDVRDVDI", "test": "Inhibition of recombinant CDK4/cyclin D1 (unknown origin) using protein as substrate", "type": "protein-complex assay"}, "[16]": {"test": "In vivo inhibition of HER2 autophosphorylation in human BT-474 cells xenografted athymic nude mouse at 40 mg/kg, po administered as single dose via gavage measured after 24 hrs by immunoblot analysis relative to control", "type": "functional"}, "MDA-MB-435": {"tested_on": "MDA-MB-435", "test": "Antiproliferative activity against human MDA-MB-435 cells measured after 2 days by sulforhodamine B assay", "type": "functional, cell-based", "settings": "MDA-MB-435, 48 h"}, "A-431 [17]": {"tested_on": "A-431", "test": "Antitumor activity against human A-431 cells xenografted in athymic nude mouse assessed as tumor growth inhibition at 5 mg/kg, po administered daily for 10 days via gavage and measured on day 15 relative to control", "type": "functional", "settings": "A-431, 360 h, time 15 day, read-out: TGI"}, "BT-474 [18]": {"tested_on": "BT-474", "test": "Antiproliferative activity against human BT-474 cells measured after 6 days by sulforhodamine B assay", "type": "functional, cell-based", "settings": "BT-474, 144 h"}, "SK-OV-3": {"tested_on": "SK-OV-3", "test": "Antitumor activity against human SK-OV-3 cells xenografted in po dosed athymic nude mouse assessed as tumor growth inhibition administered daily for 20 days via gavage and measured on day 21", "type": "functional, organism-based", "settings": "dose 10-60 mg/kg, time 21.0 day"}, "BT-474 [19]": {"tested_on": "BT-474", "test": "Cell cycle arrest in human BT-474 cells assessed as accumulation of cells at G2/M phase at 0.4 nM measured after 12 to 16 hrs by propidium iodide staining based flow cytometry (reference value: 11%)", "type": "functional", "settings": "time 12-16 hrs"}, "BT-474 [20]": {"tested_on": "BT-474", "test": "Antitumor activity against human BT-474 cells xenografted in athymic nude mouse assessed as tumor growth inhibition at 5 mg/kg, po administered daily for 20 days via gavage and measured on day 21 relative to control", "type": "functional", "settings": "BT-474, 504 h, time 21 day, read-out: TGI"}, "BT-474 [21]": {"tested_on": "BT-474", "test": "Cell cycle arrest in human BT-474 cells assessed as accumulation of cells at Sub-G1 phase at 0.4 nM measured after 12 to 16 hrs by propidium iodide staining based flow cytometry (reference value: 8%)", "type": "functional", "settings": "time 12-16 hrs"}, "[22]": {"target": "Cyclin-dependent kinase 2/cyclin E1 (Homo sapiens, UniProt P24941)", "test": "Inhibition of recombinant CDK2/cyclin E (unknown origin) using protein as substrate", "type": "protein-complex assay"}, "BT-474 [23]": {"tested_on": "BT-474", "test": "Cell cycle arrest in human BT-474 cells assessed as accumulation of cells at Sub-G1 phase at 0.2 nM measured after 12 to 16 hrs by propidium iodide staining based flow cytometry (reference value: 8%)", "type": "functional", "settings": "time 12-16 hrs"}, "[24]": {"test": "In vivo inhibition of HER2 autophosphorylation in human BT-474 cells xenografted athymic nude mouse at 40 mg/kg, po administered as single dose via gavage measured after 6 hrs by immunoblot analysis relative to control", "type": "functional"}, "BT-474 [25]": {"tested_on": "BT-474", "test": "Cell cycle arrest in human BT-474 cells assessed as accumulation of cells at S phase at 0.2 nM measured after 12 to 16 hrs by BrdUrd uptake assay (reference value: 26%)", "type": "functional", "settings": "time 12-16 hrs"}, "[26]": {"target": "MAP kinase-activated protein kinase 2 (Homo sapiens, UniProt P49137)", "sequence (P49137 whole entry)": "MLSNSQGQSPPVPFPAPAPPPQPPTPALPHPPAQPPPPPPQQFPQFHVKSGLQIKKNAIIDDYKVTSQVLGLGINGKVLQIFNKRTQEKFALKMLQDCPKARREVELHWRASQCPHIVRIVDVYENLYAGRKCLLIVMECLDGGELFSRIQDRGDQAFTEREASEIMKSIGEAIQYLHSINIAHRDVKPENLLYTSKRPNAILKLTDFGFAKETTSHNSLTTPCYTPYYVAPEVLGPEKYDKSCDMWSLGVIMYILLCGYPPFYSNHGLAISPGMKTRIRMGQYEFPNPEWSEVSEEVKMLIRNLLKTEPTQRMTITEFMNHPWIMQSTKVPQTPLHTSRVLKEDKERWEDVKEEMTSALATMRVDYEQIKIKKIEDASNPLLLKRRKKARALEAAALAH", "test": "Inhibition of recombinant MK2 (unknown origin) using peptide as substrate"}, "[27]": {"target": "Receptor tyrosine-protein kinase erbB-2 (Homo sapiens, UniProt P04626)", "sequence (P04626 whole entry)": "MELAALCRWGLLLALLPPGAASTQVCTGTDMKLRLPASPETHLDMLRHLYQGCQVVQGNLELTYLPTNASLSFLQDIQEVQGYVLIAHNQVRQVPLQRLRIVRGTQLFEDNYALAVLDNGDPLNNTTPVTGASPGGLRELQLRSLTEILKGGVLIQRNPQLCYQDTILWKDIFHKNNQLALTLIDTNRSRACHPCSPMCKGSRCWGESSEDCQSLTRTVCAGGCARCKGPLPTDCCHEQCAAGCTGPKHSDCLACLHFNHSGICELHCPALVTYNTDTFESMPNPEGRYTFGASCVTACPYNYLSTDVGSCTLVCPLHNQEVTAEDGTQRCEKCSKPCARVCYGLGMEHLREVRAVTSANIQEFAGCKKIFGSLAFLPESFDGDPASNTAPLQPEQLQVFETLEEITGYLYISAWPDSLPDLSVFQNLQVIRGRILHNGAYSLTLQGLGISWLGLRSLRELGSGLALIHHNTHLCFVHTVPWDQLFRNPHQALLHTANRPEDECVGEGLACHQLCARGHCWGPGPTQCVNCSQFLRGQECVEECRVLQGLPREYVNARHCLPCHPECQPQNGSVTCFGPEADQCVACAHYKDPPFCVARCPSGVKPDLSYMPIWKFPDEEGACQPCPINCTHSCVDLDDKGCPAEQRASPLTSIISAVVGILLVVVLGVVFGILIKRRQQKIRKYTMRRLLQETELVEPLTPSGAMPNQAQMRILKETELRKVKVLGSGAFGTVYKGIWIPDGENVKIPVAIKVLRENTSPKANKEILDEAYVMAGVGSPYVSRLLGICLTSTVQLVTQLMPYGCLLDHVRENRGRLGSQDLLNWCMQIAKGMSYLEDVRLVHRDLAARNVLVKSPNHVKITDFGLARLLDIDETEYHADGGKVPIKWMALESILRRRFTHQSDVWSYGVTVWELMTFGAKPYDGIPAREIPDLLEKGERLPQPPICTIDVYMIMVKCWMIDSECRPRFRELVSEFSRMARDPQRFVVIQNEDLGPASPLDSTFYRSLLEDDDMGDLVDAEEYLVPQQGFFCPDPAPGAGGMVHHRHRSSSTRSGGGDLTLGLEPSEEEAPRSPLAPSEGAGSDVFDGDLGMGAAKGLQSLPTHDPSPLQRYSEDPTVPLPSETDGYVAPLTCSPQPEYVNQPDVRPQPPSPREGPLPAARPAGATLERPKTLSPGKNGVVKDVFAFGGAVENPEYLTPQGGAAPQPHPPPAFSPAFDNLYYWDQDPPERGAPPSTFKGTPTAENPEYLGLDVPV", "test": "Binding affinity to HER2 in human […] cells at 1 uM measured after 15 mins by immunoprecipitation assay", "type": "cell-based", "settings": "BT-474"}, "[28]": {"test": "Cytotoxicity against mouse 3T3 cells assessed as inhibition of cell proliferation measured after 2 days by sulforhodamine B assay", "type": "toxicity, cell-based", "settings": "NIH3T3 (3T3) cells"}}, "note": "Activity calls are given as the source filed them. The rule behind the calls is not given here."}
{"molecule": "COc1cc2ncc(C#N)c(Nc3ccc(OCc4ccccn4)c(Cl)c3)c2cc1NC(=O)/C=C/CN(C)C", "values": [{"measurement": "TGI", "setting": "MCF7", "result": 28, "unit": "%"}, {"measurement": "IC50", "setting": "SW-620", "result": 690, "unit": "nM"}, {"measurement": "IC50", "setting": "[1]", "result": "> 20000", "unit": "nM"}, {"measurement": "IC50", "setting": "MDA-MB-361", "result": 190, "unit": "nM"}, {"measurement": "Activity", "setting": "[2]", "result": "Non-Toxic"}, {"measurement": "Activity", "setting": "BT-474 [3]", "result": 12, "unit": "%"}, {"measurement": "Activity", "setting": "BT-474 [4]", "result": 11, "unit": "%"}, {"measurement": "Activity", "setting": "[5]", "result": "Non-Toxic"}, {"measurement": "Activity", "setting": "BT-474 [6]", "result": 65, "unit": "%"}, {"measurement": "half-life", "setting": "[7]", "result": "~4", "unit": "h"}, {"measurement": "IC50", "setting": "BT-474 [8]", "result": 2, "unit": "nM"}, {"measurement": "IC50", "setting": "A-431 [9]", "result": 81, "unit": "nM"}, {"measurement": "inhibition in vivo at 40 mg/kg", "setting": "NIH3T3", "result": 98, "unit": "%"}, {"measurement": "Activity", "setting": "[10]", "result": "Non-Toxic"}, {"measurement": "Activity", "setting": "BT-474 [11]", "result": 10, "unit": "%"}, {"measurement": "inhibition in vivo at 20 mg/kg", "setting": "A-431 [12]", "result": 44, "unit": "%"}, {"measurement": "Activity", "setting": "BT-474 [13]", "result": "Active"}, {"measurement": "IC50", "setting": "BT-474 [14]", "result": 9, "unit": "nM"}, {"measurement": "IC50", "setting": "[15]", "result": "> 50000", "unit": "nM"}, {"measurement": "inhibition in vivo at 40 mg/kg", "setting": "[16]", "result": 43, "unit": "%"}, {"measurement": "IC50", "setting": "MDA-MB-435", "result": 960, "unit": "nM"}, {"measurement": "inhibition in vivo at 5 mg/kg", "setting": "A-431 [17]", "result": 32, "unit": "%"}, {"measurement": "IC50", "setting": "BT-474 [18]", "result": 2, "unit": "nM"}, {"measurement": "TGI", "setting": "SK-OV-3", "result": "Dose-Dependent Effect"}, {"measurement": "Activity", "setting": "BT-474 [19]", "result": 13, "unit": "%"}, {"measurement": "inhibition in vivo at 5 mg/kg", "setting": "BT-474 [20]", "result": 70, "unit": "%"}, {"measurement": "Activity", "setting": "BT-474 [21]", "result": 11, "unit": "%"}, {"measurement": "IC50", "setting": "[22]", "result": "> 18000", "unit": "nM"}, {"measurement": "Activity", "setting": "BT-474 [23]", "result": 9, "unit": "%"}, {"measurement": "inhibition in vivo at 40 mg/kg", "setting": "[24]", "result": 97, "unit": "%"}, {"measurement": "Activity", "setting": "BT-474 [25]", "result": 18, "unit": "%"}, {"measurement": "IC50", "setting": "[26]", "result": "> 45000", "unit": "nM"}, {"measurement": "Activity", "setting": "[27]", "result": "Active"}, {"measurement": "IC50 at 2 days", "setting": "[28]", "result": 700, "unit": "nM"}]}
